In series [1] the target is PSMA protein (Homo sapiens (Human), UniProt Q04609). The experiment in a line: In vitro binding test of compound and PSMA protein (Biacore). To be noted: Biacore 8K, 15° C., 1:1 binding model, KD in M; for Kd: read-out: pkD (pKD=−Log KD, binding affinity to PSMA protein) (converted). The method, then:
A Biacore 8K (Cytiva) instrument was used to determine the binding affinity of disclosed compounds to the PSMA protein (Sinobiological). The PSMA protein was captured on SA chips. Before immobilizing the disclosed compounds (flow path 1 and 2, flow rate 10 μL/min), the PSMA protein was immobilized on flow path 2 by using flow buffer (10 μg/ml, flow rate 5 μL/min, injection time 600 s), and 1M NaCl was injected three times consecutively into 50 mM NaOH to condition the sensor surface. After each disclosed compounds injection, isopropanol in 1M NaCl and 50 mM NaOH was used for additional washing (flow path 1, 2, flow rate 10 μL/min, injection time 60 s).
All compounds were dissolved in 100% DMSO and diluted to 10 mM, and then diluted in test buffer (PBS, pH 7.4, 1 mM TCEP ([…]), 0.05% P20, 2% dimethyl sulfoxide) at an appropriate highest concentration. Analytes were run using the following conditions: 15° C. analysis temperature, analysis steps=all set to LMW kinetics; cycle type=single cycle (90 s contact time, 1800 s separation time, 30 ul/min flow rate, channels 1, 2); channel detection=2-1). Data were evaluated using Biacore Insight evaluation software, and data were fit to a 1:1 binding model.
Biacore results are shown in Table 12: pKD=−Log KD, where KD is the binding affinity of the compounds to PSMA protein measured by Biacore. KD is expressed by KD (M)=Kd (1/s)/Ka (1/Ms).
On the technique in general: Surface plasmon resonance follows binding to a sensor surface in real time, without labels.

For series [2], the system named is PSMA-positive cells LNCap. The experiment in a line: Uptake of labeled compounds by PSMA-positive cells LNCap. The class given is cell-based. Conditions: 37° C., 0.5 h. Here is the method: LNCap cells (Shangcheng Beina Chuanglian Biotechnology Co., Ltd., Industrial Park, Chengguan Town, Shangcheng County, Xinyang City, Henan Province) were revived and passaged for expansion. After the cells were expanded to a sufficient amount, cells were seeded in a 24-well plate at a density of 1×10^4 cells/well. Uptake tests were performed when cells grew to 80%-90% confluence.
The above labeled compounds ^177Lu-E1, ^177Lu-E2, ^177Lu-E3, ^177Lu-E5, ^177Lu-E9, ^177Lu-E14 and ^177Lu-PSMA-617 were diluted with serum-free medium into 10000, 1000, 100, 10, 1, 0.1 and 0 nM. 1 mL of the diluted solution was added to a 24-well plate, and incubated at 37° C. for 0.5 h. The supernatant was discarded and the cells were washed 3 times with PBS. 250 μL of 1M NaOH solution was added to each well. The cells were pipetted until they were completely dissolved, and transferred to a scintillation vial. 250 μL of NaOH solution was added to each well again to wash the bottom of the well and transferred to a scintillation vial. 2 mL of scintillation fluid was added to each scintillation vial and shaken well. A liquid scintillation counter was used to detect radioactive counts in each vial.

The nature of series [3]: In vivo metabolism test of 177Lu-labeled complex in SD rats (plasma radioactive counts). To be noted: for plasma radioactive counts: individual rat, 100 μL plasma; for plasma radioactive counts, MEAN: mean of rats. Here is the method:
Eighteen SD rats (Hangzhou Ziyuan Experimental Animal Technology Co., Ltd.), male, weighing 180-200 g, were randomly divided into 6 groups, 3 rats in each group. […] of the labeled precursor compound was injected into the tail vein of each mouse. 250 μL of orbital blood was collected into anticoagulant tubes at 5 min, 0.5 h, 1 h, 2 h, 4 h, 8 h and 24 h after administration. Blood was centrifuged at 3000 rpm for 10 min, and 100 μL of plasma was taken into scintillation vials. 2 mL of scintillation fluid was added to each scintillation vial and shaken well. A liquid scintillation counter was used to detect radioactive counts in each vial.

Series [4] relates to LNCaP PSMA-positive tumors. Briefly: SPECT imaging in mice carrying LNCaP PSMA-positive tumors. Conditions: 100 μCi tail vein. The class given is in vivo. The method, then:
100 μCi of ^177Lu-labeled ^177Lu-E3 and ^177Lu-PSMA-617 were injected into mice carrying LNCaP PSMA-positive tumors (Jiangsu Huajing Molecular Imaging and Drug Research Institute Co., Ltd.) through the tail vein respectively. Mice were anesthetized with 2% isoflurane/98% oxygen for SPECT image contrast study.

Series [5] deals with 22rv1 xenograft tumor. The experiment in a line: Pharmacodynamic study in 22rv1 mouse xenograft tumor model (effect example 11). The class given is in vivo, mice. To be noted: over the two dose groups.
Setting [6] is: 5 min after tail vein injection.
[7] abbreviates: 0.5 h after tail vein injection.

The structures appear in SMILES notation. Several values for one entry are separate records, joined by “and”; a condition that tells them apart may be missing. Equal entries are not always repeated.

A word on the Kd: it is a measure of binding affinity in units of concentration.

Chain of PSMA protein (Q04609 whole entry): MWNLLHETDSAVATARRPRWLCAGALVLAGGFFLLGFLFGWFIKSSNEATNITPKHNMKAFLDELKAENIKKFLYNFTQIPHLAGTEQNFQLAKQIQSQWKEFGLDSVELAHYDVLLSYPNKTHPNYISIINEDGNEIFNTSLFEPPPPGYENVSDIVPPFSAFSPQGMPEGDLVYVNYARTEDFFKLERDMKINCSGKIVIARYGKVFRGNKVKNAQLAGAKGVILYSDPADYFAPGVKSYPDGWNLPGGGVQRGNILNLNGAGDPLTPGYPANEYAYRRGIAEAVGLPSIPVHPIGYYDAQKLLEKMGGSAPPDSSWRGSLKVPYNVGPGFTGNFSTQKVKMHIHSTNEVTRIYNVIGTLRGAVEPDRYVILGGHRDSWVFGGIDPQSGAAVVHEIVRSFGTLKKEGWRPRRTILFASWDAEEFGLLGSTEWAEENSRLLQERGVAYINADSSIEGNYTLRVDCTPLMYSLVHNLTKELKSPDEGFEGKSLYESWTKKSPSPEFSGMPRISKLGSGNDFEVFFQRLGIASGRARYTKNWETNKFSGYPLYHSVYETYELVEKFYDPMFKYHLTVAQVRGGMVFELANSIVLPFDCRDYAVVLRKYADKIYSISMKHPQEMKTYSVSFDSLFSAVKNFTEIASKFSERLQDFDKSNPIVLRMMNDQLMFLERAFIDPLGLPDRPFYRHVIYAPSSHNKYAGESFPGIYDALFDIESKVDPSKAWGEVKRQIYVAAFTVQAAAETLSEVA

For `O=C(O)CC[C@H](NC(=O)N[C@@H](CCCCNC(=O)[C@H](Cc1ccc2ccccc2c1)NC(=O)c1ccc2c(c1)CN(C(=O)CN1CCN(CC(=O)O)CCN(CC(=O)O)CCN(CC(=O)O)CC1)CC2)C(=O)O)C(=O)O` [Compound E4], the dissociation constant (Kd) in series [1] was 0.269 nM.

As for `O=C([O-])CN1CCN(CC(=O)[O-])CCN(CC(=O)Nc2nc3cc(C(=O)NC(Cc4ccc5ccccc5c4)C(=O)NCCCCC(NC(=O)NC(CCC(=O)O)C(=O)O)C(=O)O)ccc3s2)CCN(CC(=O)[O-])CC1.[177Lu+3]` (centres unmarked) [^177Lu-E1], the “uptake by LNCap cells” value in series [2] (0.1 nM) was found to be 39 cpm; in series [2] (1 nM), 169 cpm; in series [2] (10 nM), 77 cpm; in series [2] (100 nM), 121 cpm; in series [2] (1000 nM), 331 cpm; in series [2] (10000 nM) it was 1595 cpm. In addition, the plasma radioactive counts in series [3] (setting [6]) was 28305 cpm and 17143 cpm; in series [3] (setting [7]), 9829 cpm and 8252 cpm; in series [3] (1 h after tail vein injection), 3505 cpm and 3389 cpm; in series [3] (2 h after tail vein injection) it was 615 cpm and 1288 cpm; in series [3] (4 h after tail vein injection), 163 cpm and 315 cpm; in series [3] (8 h after tail vein injection), 174 cpm and 179 cpm. Besides, in series [3] (24 h after tail vein injection), the plasma radioactive counts is 151 cpm and 169 cpm. Also, the “plasma radioactive counts, MEAN” value came out at 22724 cpm in series [3] (setting [6]); 9041 cpm in series [3] (setting [7]); 3447 cpm in series [3] (1 h after tail vein injection); 952 cpm in series [3] (2 h after tail vein injection); 239 cpm in series [3] (4 h after tail vein injection); 177 cpm in series [3] (8 h after tail vein injection). For the same compound, the “plasma radioactive counts, MEAN” value in series [3] (24 h after tail vein injection) is 160 cpm.

With `O=C(O)CC[C@H](NC(=O)N[C@@H](CCCCNC(=O)[C@H](Cc1ccc2ccccc2c1)NC(=O)C1CC2(C1)CN(C(=O)CN1CCN(CC(=O)O)CCN(CC(=O)O)CCN(CC(=O)O)CC1)C2)C(=O)O)C(=O)O` [Compound E22], the “pkD (pKD=−Log KD, binding affinity to PSMA protein)” value in series [1] was 10.00.

As to `O=C([O-])CN1CCN(CC(=O)[O-])CCN(CC(=O)NCC2CCC(C(=O)N[C@@H](Cc3ccc4ccccc4c3)C(=O)NCCCC[C@H](NC(=O)N[C@@H](CCC(=O)O)C(=O)O)C(=O)O)CC2)CCN(CC(=O)[O-])CC1.[177Lu+3]` (some centres unmarked) [^177Lu-PSMA-617, reference compound], the “uptake by LNCap cells” value in series [2] (0.1 nM) worked out at 49 cpm; in series [2] (1 nM) it was 67 cpm; in series [2] (10 nM), 225 cpm; in series [2] (100 nM), 389 cpm; in series [2] (1000 nM) it was 599 cpm; in series [2] (10000 nM) it was 1625 cpm. Moreover, the plasma radioactive counts was 24449 cpm and 23276 cpm and 22010 cpm in series [3] (setting [6]); 9783 cpm and 13738 cpm and 14589 cpm in series [3] (setting [7]); 3865 cpm and 6988 cpm and 7736 cpm in series [3] (1 h after tail vein injection); 679 cpm and 1346 cpm and 1544 cpm in series [3] (2 h after tail vein injection); 207 cpm and 219 cpm and 225 cpm in series [3] (4 h after tail vein injection); 188 cpm and 187 cpm and 170 cpm in series [3] (8 h after tail vein injection). Moreover, the plasma radioactive counts in series [3] (24 h after tail vein injection) was 173 cpm and 176 cpm and 178 cpm. The “plasma radioactive counts, MEAN” value in series [3] (setting [6]) is reported as 23245 cpm; in series [3] (setting [7]), 12703 cpm; in series [3] (1 h after tail vein injection), 6196 cpm; in series [3] (2 h after tail vein injection), 1190 cpm; in series [3] (4 h after tail vein injection), 217 cpm; in series [3] (8 h after tail vein injection), 182 cpm. Also, in series [3] (24 h after tail vein injection), the “plasma radioactive counts, MEAN” value is 176 cpm. In addition, the “Heart, Averaged” value in series [4] (1 h) was found to be 1.59 % ID/cc; in series [4] (4 h) it was 1.47 % ID/cc; in series [4] (8 h), 0.53 % ID/cc; in series [4] (1 d) it was 1.45 % ID/cc; in series [4] (3 d), 0.46 % ID/cc. The “Kidney, Averaged” value came out at 58.17 % ID/cc in series [4] (1 h); 8.37 % ID/cc in series [4] (4 h); 4.35 % ID/cc in series [4] (8 h); 1.16 % ID/cc in series [4] (1 d); 1.55 % ID/cc in series [4] (3 d). Also, the “Liver, Averaged” value in series [4] (1 h) came to 1.61 % ID/cc; in series [4] (4 h), 1.27 % ID/cc; in series [4] (8 h), 1.04 % ID/cc; in series [4] (1 d) it was 1.43 % ID/cc; in series [4] (3 d) it was 0.96 % ID/cc. Moreover, the “Lung, Averaged” value in series [4] (1 h) was 3.30 % ID/cc; in series [4] (4 h) it was 1.54 % ID/cc; in series [4] (8 h), 0.86 % ID/cc; in series [4] (1 d), 0.85 % ID/cc; in series [4] (3 d), 3.74 % ID/cc. In addition, the “Tumor, Averaged” value in series [4] (1 h) was 19.42 % ID/cc; in series [4] (4 h), 10.68 % ID/cc; in series [4] (8 h) it was 9.4 % ID/cc; in series [4] (1 d), 2.19 % ID/cc; in series [4] (3 d), 4.76 % ID/cc. Also, in series [5], the “tumor growth inhibition rate” value was 15-21%.

For `O=C([O-])CN1CCN(CC(=O)[O-])CCN(CC(=O)NC23CC(C(=O)NC(Cc4ccc5ccccc5c4)C(=O)NCCCCC(NC(=O)NC(CCC(=O)O)C(=O)O)C(=O)O)(C2)C3)CCN(CC(=O)[O-])CC1.[177Lu+3]` (centres unmarked) [^177Lu-E14], the “uptake by LNCap cells” value in series [2] (0.1 nM) was 28 cpm; in series [2] (1 nM) it was 82 cpm; in series [2] (10 nM) it was 220 cpm; in series [2] (100 nM) it was 345 cpm; in series [2] (1000 nM), 479 cpm; in series [2] (10000 nM) it was 362 cpm. Besides, the plasma radioactive counts was 42150 cpm and 41058 cpm and 45756 cpm in series [3] (setting [6]); 18047 cpm and 18268 cpm and 18614 cpm in series [3] (setting [7]); 7200 cpm and 6304 cpm and 6154 cpm in series [3] (1 h after tail vein injection); 1415 cpm and 1686 cpm and 1863 cpm in series [3] (2 h after tail vein injection); 203 cpm and 198 cpm and 259 cpm in series [3] (4 h after tail vein injection); 201 cpm and 206 cpm and 203 cpm in series [3] (8 h after tail vein injection). For the same compound, in series [3] (24 h after tail vein injection), the plasma radioactive counts is 196 cpm and 175 cpm and 159 cpm. Besides, the “plasma radioactive counts, MEAN” value in series [3] (setting [6]) is reported as 42988 cpm; in series [3] (setting [7]) it was 18310 cpm; in series [3] (1 h after tail vein injection), 6553 cpm; in series [3] (2 h after tail vein injection), 1655 cpm; in series [3] (4 h after tail vein injection), 220 cpm; in series [3] (8 h after tail vein injection), 203 cpm. Further, the “plasma radioactive counts, MEAN” value in series [3] (24 h after tail vein injection) is on record as 177 cpm.

For the compound `O=C(O)CC[C@H](NC(=O)NC(CCCCNC(=O)[C@H](Cc1ccc2ccccc2c1)NC(=O)C1CCC2(CC1)CN(C(=O)CN1CCN(CC(=O)O)CCN(CC(=O)O)CCN(CC(=O)O)CC1)C2)C(=O)O)C(=O)O` (some centres unmarked) [Compound E2], the Kd in series [1] is 0.229 nM.

These data come from patent US20240366813A1, “PEPTIDE-UREA DERIVATIVE, PHARMACEUTICAL COMPOSITION CONTAINING SAME AND APPLICATION THEREOF” (Bivision Pharmaceuticals, Inc., priority 0001, published 2024).
